From patent US8802597B2, “Herbicidal pyrimidines” (E I du Pont de Nemours and Company, priority 2003, dated 2014)

How the values were obtained:
Type in all cases: in vivo
[1] = test system: Surinam grass (Brachiaria decumbens); test: Test B pre/postemergence
Method in brief: (§1)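 Pre: compound (non-phytotoxic solvent + surfactant) applied to freshly planted seeds. Post: same formulation sprayed on 2–18 cm plants, 1- to 4-leaf. Readout: visual control rating 0–100 vs controls, 13–15 d, greenhouse.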

[2] = test system: barnyardgrass (Echinochloa crus-galli); test: Test B pre/postemergence
Method in brief: as §1

[3] = test system: cocklebur (Xanthium strumarium); test: Test B pre/postemergence
Method in brief: as §1

corn (Zea mays) = test: Test B pre/postemergence
Method in brief: as §1

[4] = test system: crabgrass (Digitaria sanguinalis); test: Test B pre/postemergence
Method in brief: as §1

[5] = test system: giant foxtail (Setaria faberii); test: Test B pre/postemergence
Method in brief: as §1

[6] = test system: lambsquarters (Chenopodium album); test: Test B pre/postemergence; settings: for Lambsquarters plant response rating: scale 0 to 100 (0 no effect, 100 complete control)
Method in brief: as §1

[7] = test system: morningglory (Ipomoea coccinea); test: Test B pre/postemergence
Method in brief: as §1

[8] = test system: pigweed (Amaranthus retroflexus); test: Test B pre/postemergence
Method in brief: as §1

[9] = test system: velvetleaf (Abutilon theophrasti); test: Test B pre/postemergence
Method in brief: as §1

[10] = test system: wheat (Triticum aestivum); test: Test B pre/postemergence
Method in brief: as §1

[11] = test system: blackgrass (Alopecurus myosuroides); test: Test B postemergence
Method in brief: as §1

wild oat (Avena fatua) = test: Test B postemergence
Method in brief: as §1

[12] = test system: barnyardgrass (Echinochloa crus-galli); test: Test B flooded paddy test; settings: Flood, 1000 g ai/ha; scale 0 (no effect) to 100 (complete control)
Method in brief: (§2)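 Rice, umbrella sedge, duck salad and barnyardgrass grown to 2-leaf stage under flooded paddy conditions and treated with formulated test chemicals. Kept in greenhouse 13–15 days, then visually rated against untreated controls on a 0–100 scale (0 no effect, 100 complete control).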

[13] = test system: duck salad (Heteranthera limosa); test: Test B flooded paddy test; settings: Flood, 1000 g ai/ha; scale 0 to 100
Method in brief: as §2

rice (Oryza sativa) = test: Test B flooded paddy test; settings: Flood, 1000 g ai/ha; scale 0 to 100
Method in brief: as §2

[14] = test system: umbrella sedge (Cyperus difformis); test: Test B flooded paddy test; settings: Flood, 1000 g ai/ha; scale 0 to 100
Method in brief: as §2

[15] = Postemergence, 125 g ai/ha, scale 0 to 100 (0 no effect, 100 complete control)
[16] = Postemergence, 500 g ai/ha, scale 0 to 100
[17] = Preemergence, 125 g ai/ha, scale 0 to 100 (0 no effect, 100 complete control)
[18] = Preemergence, 500 g ai/ha, scale 0 to 100 (0 no effect, 100 complete control)
[19] = 125 g ai/ha, scale 0 to 100 (0 no effect, 100 complete control)

`COC(=O)CNc1nc(C2CC2)nc(C(=O)OC)c1Br` [Compound 10] was tested, and the “Surinam Grass plant response rating” value [1, 15] was 10, the “Plant response rating, Surinam Grass” value [1, 16] was 10 and the “Plant response rating, Surinam Grass” value [1, 17] was 0. For the same compound, the “Surinam Grass plant response rating” value [1, 18] was 0, the “Barnyardgrass plant response rating” value [2, 15] was 0 and the “Plant response rating, Barnyardgrass” value [2, 16] was 10. For the same compound, the “Plant response rating, Barnyardgrass” value [2, 17] was 20, the “Barnyardgrass plant response rating” value [2, 18] was 50 and the “Cocklebur plant response rating” value [3, 15] was 60. The “Plant response rating, Cocklebur” value [3, 16] was 70, the “Plant response rating, Cocklebur” value [3, 17] was 80 and the “Cocklebur plant response rating” value [3, 18] was 90. For the same compound, the “Corn plant response rating” value (corn (Zea mays); [15]) was 0, the “Plant response rating, Corn” value (corn (Zea mays); [16]) was 0 and the “Plant response rating, Corn” value (corn (Zea mays); [17]) was 0. The “Corn plant response rating” value (corn (Zea mays); [18]) was 0, the “Crabgrass plant response rating” value [4, 15] was 30 and the “Plant response rating, Crabgrass” value [4, 16] was 40. For the same compound, the “Plant response rating, Crabgrass” value [4, 17] was 20, the “Crabgrass plant response rating” value [4, 18] was 60 and the “Foxtail, Giant plant response rating” value [5, 15] was 0. For the same compound, the “Plant response rating, Foxtail, Giant” value [5, 16] was 10, the “Plant response rating, Foxtail, Giant” value [5, 17] was 0 and the “Foxtail, Giant plant response rating” value [5, 18] was 20. The “Lambsquarters plant response rating” value ([6]; Postemergence, 125 g ai/ha) was 80, the “Plant response rating, Lambsquarters” value [6, 16] was 90 and the “Lambsquarters plant response rating” value ([6]; Preemergence, 500 g ai/ha) was 90. For the same compound, the “Morningglory plant response rating” value [7, 15] was 80, the “Plant response rating, Morningglory” value [7, 16] was 80 and the “Plant response rating, Morningglory” value [7, 17] was 80. For the same compound, the “Morningglory plant response rating” value [7, 18] was 90, the “Pigweed plant response rating” value [8, 15] was 80 and the “Plant response rating, Pigweed” value [8, 16] was 90. The “Plant response rating, Pigweed” value [8, 17] was 80, the “Pigweed plant response rating” value [8, 18] was 90 and the “Velvetleaf plant response rating” value [9, 15] was 50. For the same compound, the “Plant response rating, Velvetleaf” value [9, 16] was 80, the “Plant response rating, Velvetleaf” value [9, 17] was 80 and the “Velvetleaf plant response rating” value [9, 18] was 90. The “Wheat plant response rating” value [10, 15] was 0, the “Plant response rating, Wheat” value [10, 16] was 0 and the “Plant response rating, Wheat” value [10, 17] was 0. For the same compound, the “Wheat plant response rating” value [10, 18] was 0, the “Blackgrass plant response rating” value [11, 19] was 0 and the “Plant response rating, Blackgrass” value ([11]; 500 g ai/ha, scale 0 to 100) was 0. The “Oat, Wild plant response rating” value (wild oat (Avena fatua); [19]) was 0, the “Plant response rating, Oat, Wild” value (wild oat (Avena fatua); 500 g ai/ha, scale 0 to 100) was 10 and the “Plant response rating, Barnyardgrass” value [12] was 0. For the same compound, the “Plant response rating, Ducksalad” value [13] was 0, the “Plant response rating, Rice” value (rice (Oryza sativa)) was 0 and the “Plant response rating, Sedge, Umbrella” value [14] was 0.
